# Patent US11472791B2 (Incyte Corporation, priority 2019, dated 2022)
# Target: CDK2/Cyclin E1 (Homo sapiens (Human), UniProt P24941)
# Assay: CDK2/Cyclin E1 HTRF enzyme activity assay
# Type: biochemical
# Conditions: 1 mM ATP
# Description: Assays are conducted in white 384-well polystyrene plates in a final reaction volume of 8 μL. […] HTRF signals are read after 1 hour at room temperature on a PHERAstar FS plate reader (BMG Labtech). Data is analyzed with IDBS XLFit and GraphPad Prism 5.0 software using a three or four parameter dose response curve to determine IC50 for each compound.
row,Structure (SMILES),IC50 [nM]
1,"N#Cc1cnc(N[C@H]2CCN(S(=O)(=O)C3CC3)C[C@H]2F)nc1-c1cnn(-c2ccc(CNCC3(O)CC3)cc2Cl)c1 [Example 156, 4-(1-(2-Chloro-4-((((1-hydroxycyclopropyl)methyl)amino)methyl)phenyl)-1H-pyrazol-4-yl)-2-(((3R,4S)-1-(cyclopropylsulfonyl)-3-fluoropiperidin-4-yl)amino)pyrimidine-5-carbonitrile]",< 50
2,"CC(C)(CO)NCc1ccc(-n2cc(-c3nc(NC4CCN(S(C)(=O)=O)CC4)ncc3C#N)cn2)c(Cl)c1 [Example 157, 4-(1-(2-Chloro-4-(((1-hydroxy-2-methylpropan-2-yl)amino)methyl)phenyl)-1H-pyrazol-4-yl)-2-((1-(methylsulfonyl)piperidin-4-yl)amino)pyrimidine-5-carbonitrile]",< 50
3,"CS(=O)(=O)N1CCC(Nc2ncc(C#N)c(-c3cnn(-c4ccc(CN[C@]5(C)C[C@H](O)C5)cc4Cl)c3)n2)CC1 [Example 158, 4-(1-(2-Chloro-4-((((1s,3s)-3-hydroxy-1-methylcyclobutyl)amino)methyl)phenyl)-1H-pyrazol-4-yl)-2-((1-(methylsulfonyl)piperidin-4-yl)amino)pyrimidine-5-carbonitrile]",< 50
4,"CS(=O)(=O)N1CCC(Nc2ncc(C#N)c(-c3cnn(-c4ccc(CN[C@H]5C[C@H](O)C5)cc4Cl)c3)n2)CC1 [Example 161, 4-(1-(2-Chloro-4-((((1r,3r)-3-hydroxycyclobutyl)amino)methyl)phenyl)-1H-pyrazol-4-yl)-2-((1-(methylsulfonyl)piperidin-4-yl)amino)pyrimidine-5-carbonitrile]",< 50
5,"CO[C@H]1C[C@@H](NCc2ccc(-n3cc(-c4nc(NC5CCN(S(C)(=O)=O)CC5)ncc4C#N)cn3)c(Cl)c2)C1 [Example 163, 4-(1-(2-Chloro-4-((((1s,3s)-3-methoxycyclobutyl)amino)methyl)phenyl)-1H-pyrazol-4-yl)-2-((1-(methylsulfonyl)piperidin-4-yl)amino)pyrimidine-5-carbonitrile]",< 50
6,"CS(=O)(=O)N1CCC(Nc2ncc(C#N)c(-c3cnn(-c4ccc(CN[C@H]5C[C@@H](C#N)C5)cc4Cl)c3)n2)CC1 [Example 164, 4-(1-(2-Chloro-4-((((1s,3s)-3-cyanocyclobutyl)amino)methyl)phenyl)-1H-pyrazol-4-yl)-2-((1-(methylsulfonyl)piperidin-4-yl)amino)pyrimidine-5-carbonitrile]",< 50
7,"CCS(=O)(=O)N1CCC(Nc2ncc(C#N)c(-c3cnn(-c4ccc(CNc5cnn(C)c5)cc4Cl)c3)n2)CC1 [Example 165, 4-(1-(2-Chloro-4-(((1-methyl-1H-pyrazol-4-yl)amino)methyl)phenyl)-1H-pyrazol-4-yl)-2-((1-(ethylsulfonyl)piperidin-4-yl)amino)pyrimidine-5-carbonitrile]",< 50
8,"COC(=O)N1CCC[C@@H](NCc2ccc(-n3cc(-c4nc(NC5CCN(S(C)(=O)=O)CC5)ncc4C#N)cn3)c(Cl)c2)C1 [Example 168, Methyl (R)-3-((3-chloro-4-(4-(5-cyano-2-((1-(methylsulfonyl)piperidin-4-yl)amino)pyrimidin-4-yl)-1H-pyrazol-1-yl)benzyl)amino)piperidine-1-carboxylate]",< 50
9,"CC(=O)N1CC[C@H](NCc2ccc(-n3cc(-c4nc(NC5CCN(S(C)(=O)=O)CC5)ncc4C#N)cn3)c(Cl)c2)C1 [Example 169, (S)-4-(1-(4-(((1-Acetylpyrrolidin-3-yl)amino)methyl)-2-chlorophenyl)-1H-pyrazol-4-yl)-2-((1-(methylsulfonyl)piperidin-4-yl)amino)pyrimidine-5-carbonitrile]",< 50
10,"CC(=O)N1CC[C@@H](NCc2ccc(-n3cc(-c4nc(NC5CCN(S(C)(=O)=O)CC5)ncc4C#N)cn3)c(Cl)c2)C1 [Example 170, (R)-4-(1-(4-(((1-Acetylpyrrolidin-3-yl)amino)methyl)-2-chlorophenyl)-1H-pyrazol-4-yl)-2-((1-(methylsulfonyl)piperidin-4-yl)amino)pyrimidine-5-carbonitrile]",< 50
11,"COC(=O)N1CC(NCc2ccc(-n3cc(-c4nc(NC5CCN(S(C)(=O)=O)CC5)ncc4C#N)cn3)c(Cl)c2)C1 [Example 172, Methyl 3-((3-chloro-4-(4-(5-cyano-2-((1-(methylsulfonyl)piperidin-4-yl)amino)pyrimidin-4-yl)-1H-pyrazol-1-yl)benzyl)amino)azetidine-1-carboxylate]",< 50
12,"CS(=O)(=O)N1CCC(Nc2ncc(C#N)c(-c3cnn(-c4ccc(CN[C@H]5CC[C@@](C)(O)CC5)cc4Cl)c3)n2)CC1 [Example 173, 4-(1-(2-Chloro-4-((((1s,4s)-4-hydroxy-4-methylcyclohexyl)amino)methyl)phenyl)-1H-pyrazol-4-yl)-2-((1-(methylsulfonyl)piperidin-4-yl)amino)pyrimidine-5-carbonitrile]",< 50
13,"CS(=O)(=O)N1CCC(Nc2ncc(C#N)c(-c3cnn(-c4ccc(CN[C@H]5CC[C@](C)(O)CC5)cc4Cl)c3)n2)CC1 [Example 174, 4-(1-(2-Chloro-4-((((1r,4r)-4-hydroxy-4-methylcyclohexyl)amino)methyl)phenyl)-1H-pyrazol-4-yl)-2-((1-(methylsulfonyl)piperidin-4-yl)amino)pyrimidine-5-carbonitrile]",< 50
14,"CCS(=O)(=O)N1CCC(Nc2ncc(C#N)c(-c3cnn(-c4ccc(CN[C@H]5CC[C@](C)(O)CC5)cc4Cl)c3)n2)CC1 [Example 176, 4-(1-(2-Chloro-4-((((1r,4r)-4-hydroxy-4-methylcyclohexyl)amino)methyl)phenyl)-1H-pyrazol-4-yl)-2-((1-(ethylsulfonyl)piperidin-4-yl)amino)pyrimidine-5-carbonitrile]",< 50
15,"CS(=O)(=O)N1CCC(Nc2ncc(C#N)c(-c3cnn(-c4ccc(CN[C@H]5CC[C@](O)(C(F)(F)F)CC5)cc4Cl)c3)n2)CC1 [Example 177, 4-(1-(2-Chloro-4-((((1s,4s)-4-hydroxy-4-(trifluoromethyl)cyclohexyl)amino)methyl)phenyl)-1H-pyrazol-4-yl)-2-((1-(methylsulfonyl)piperidin-4-yl)amino)pyrimidine-5-carbonitrile]",< 50
16,"CS(=O)(=O)N1CCC(Nc2ncc(C#N)c(-c3cnn(-c4ccc(CN[C@@H]5CCCC[C@H]5O)cc4Cl)c3)n2)CC1 [Example 178, 4-(1-(2-Chloro-4-((((1R,2R)-2-hydroxycyclohexyl)amino)methyl)phenyl)-1H-pyrazol-4-yl)-2-((1-(methylsulfonyl)piperidin-4-yl)amino)pyrimidine-5-carbonitrile]",< 50
17,"CS(=O)(=O)N1CCC(Nc2ncc(C#N)c(-c3cnn(-c4ccc(CN[C@@H]5CCCC[C@@H]5O)cc4Cl)c3)n2)CC1 [Example 179, 4-(1-(2-Chloro-4-((((1R,2S)-2-hydroxycyclohexyl)amino)methyl)phenyl)-1H-pyrazol-4-yl)-2((1-(methylsulfonyl)piperidin-4-yl)amino)pyrimidine-5-carbonitrile]",< 50

# The remaining lines, values ahead:
row,IC50 [nM],Structure (SMILES)
1,< 50,"CS(=O)(=O)N1CCC(Nc2ncc(C#N)c(-c3cnn(-c4ccc(CNC5(CO)CC5)cc4Cl)c3)n2)CC1 [Example 159, 4-(1-(2-Chloro-4-(((1-(hydroxymethyl)cyclopropyl)amino)methyl)phenyl)-1H-pyrazol-4-yl)-2-((1-(methylsulfonyl)piperidin-4-yl)amino)pyrimidine-5-carbonitrile]"
2,< 50,"CC(C)(NCc1ccc(-n2cc(-c3nc(NC4CCN(S(C)(=O)=O)CC4)ncc3C#N)cn2)c(Cl)c1)C(N)=O [Example 160, 2-((3-Chloro-4-(4-(5-cyano-2-((1-(methylsulfonyl)piperidin-4-yl)amino)pyrimidin-4-yl)-1H-pyrazol-1-yl)benzyl)amino)-2-methylpropanamide]"
3,< 50,"CS(=O)(=O)N1CCC(Nc2ncc(C#N)c(-c3cnn(-c4ccc(CN[C@H]5C[C@@H](O)C5)cc4Cl)c3)n2)CC1 [Example 162, 4-(1-(2-Chloro-4-((((1s,3s)-3-hydroxycyclobutyl)amino)methyl)phenyl)-1H-pyrazol-4-yl)-2-((1-(methylsulfonyl)piperidin-4-yl)amino)pyrimidine-5-carbonitrile]"
4,< 50,"COC(=O)NC1CCCCC1NCc1ccc(-n2cc(-c3nc(NC4CCN(S(C)(=O)=O)CC4)ncc3C#N)cn2)c(Cl)c1 (stereo not shown) [Example 166, Methyl (2-((3-chloro-4-(4-(5-cyano-2-((1-(methylsulfonyl)piperidin-4-yl)amino)pyrimidin-4-yl)-1H-pyrazol-1-yl)benzyl)amino)cyclohexyl)carbamate]"
5,< 50,"COC(=O)N1CCC[C@H](NCc2ccc(-n3cc(-c4nc(NC5CCN(S(C)(=O)=O)CC5)ncc4C#N)cn3)c(Cl)c2)C1 [Example 167, Methyl (S)-3-((3-chloro-4-(4-(5-cyano-2-((1-(methylsulfonyl)piperidin-4-yl)amino)pyrimidin-4-yl)-1H-pyrazol-1-yl)benzyl)amino)piperidine-1-carboxylate]"
6,< 50,"CC(=O)N1CC(NCc2ccc(-n3cc(-c4nc(NC5CCN(S(C)(=O)=O)CC5)ncc4C#N)cn3)c(Cl)c2)C1 [Example 171, 4-(1-(4-(((1-Acetylazetidin-3-yl)amino)methyl)-2-chlorophenyl)-1H-pyrazol-4-yl)-2-((1-(methylsulfonyl)piperidin-4-yl)amino)pyrimidine-5-carbonitrile]"
7,< 50,"CCS(=O)(=O)N1CCC(Nc2ncc(C#N)c(-c3cnn(-c4ccc(CN[C@H]5CC[C@@](C)(O)CC5)cc4Cl)c3)n2)CC1 [Example 175, 4-(1-(2-Chloro-4-((((1s,4s)-4-hydroxy-4-methylcyclohexyl)amino)methyl)phenyl)-1H-pyrazol-4-yl)-2-((1-(ethylsulfonyl)piperidin-4-yl)amino)pyrimidine-5-carbonitrile]"
8,< 50,"CS(=O)(=O)N1CCC(Nc2ncc(C#N)c(-c3cnn(-c4ccc(CN[C@H]5CCC[C@@H](O)C5)cc4Cl)c3)n2)CC1 [Example 180, 4-(1-(2-Chloro-4-((((1S,3R)-3-hydroxycyclohexyl)amino)methyl)phenyl)-1H-pyrazol-4-yl)-2((1-(methylsulfonyl)piperidin-4-yl)amino)pyrimidine-5-carbonitrile]"
